Values quoted from earlier work, collected in US12557843B2, “Other than cannabinoids, flavonoids, and terpenes” (priority 2020, dated 2026).

Columns and labels:
[1] = molecular target: acetylcholinesterase (Homo sapiens, UniProt P22303)
[2] = test system: laboratory animals
[3] = molecular target: CB2 cannabinoid receptor (Homo sapiens, UniProt P34972)
[4] = test system: leukaemia
[5] = test system: breast cancer cells
[6] = test system: GABA receptors
[7] = test system: PGE-2
[8] = test system: monoamine oxidase enzyme (MAO)

Chain of CB2 cannabinoid receptor (P34972 whole entry): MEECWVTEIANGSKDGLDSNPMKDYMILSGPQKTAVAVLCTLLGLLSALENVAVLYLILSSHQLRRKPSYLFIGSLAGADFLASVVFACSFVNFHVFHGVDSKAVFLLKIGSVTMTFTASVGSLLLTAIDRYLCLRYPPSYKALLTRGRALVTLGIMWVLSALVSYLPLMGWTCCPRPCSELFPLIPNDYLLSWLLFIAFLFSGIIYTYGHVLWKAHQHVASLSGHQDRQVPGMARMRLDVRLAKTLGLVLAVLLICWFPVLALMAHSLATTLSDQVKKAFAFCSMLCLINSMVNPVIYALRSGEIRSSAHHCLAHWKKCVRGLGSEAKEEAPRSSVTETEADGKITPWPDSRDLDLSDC
Chain of acetylcholinesterase (P22303 32-614, species assumed): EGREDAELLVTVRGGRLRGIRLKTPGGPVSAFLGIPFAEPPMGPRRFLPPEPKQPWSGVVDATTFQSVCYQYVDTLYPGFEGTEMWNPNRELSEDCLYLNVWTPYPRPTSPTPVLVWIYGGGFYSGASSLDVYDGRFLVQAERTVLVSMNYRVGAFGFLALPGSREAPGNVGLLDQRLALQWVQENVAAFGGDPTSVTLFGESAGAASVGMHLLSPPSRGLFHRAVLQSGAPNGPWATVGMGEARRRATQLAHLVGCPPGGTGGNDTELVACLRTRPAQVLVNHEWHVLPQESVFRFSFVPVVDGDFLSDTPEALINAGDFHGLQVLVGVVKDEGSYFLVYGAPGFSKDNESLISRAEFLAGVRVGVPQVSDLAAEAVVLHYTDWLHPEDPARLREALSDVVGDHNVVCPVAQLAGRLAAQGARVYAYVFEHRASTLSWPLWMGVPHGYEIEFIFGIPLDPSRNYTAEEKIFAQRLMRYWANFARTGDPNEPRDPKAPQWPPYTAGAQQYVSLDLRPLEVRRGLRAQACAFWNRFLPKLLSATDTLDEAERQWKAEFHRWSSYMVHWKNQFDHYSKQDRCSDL

For `CC1=CCC2CC1C2(C)C` (stereo not drawn) [A-pinene, α-pinene], the acetylcholinesterase inhibition [1] is given as “acetylcholinesterase inhibitor”.
For `C=C1CC/C=C(\C)CC[C@@H]2[C@@H]1CC2(C)C` [B-caryophyllene, β-caryophyllene], the “effects proven in animal models” value ([2]; β-caryophyllene, animal models, not yet in humans) is given as “anti-inflammatory and analgesic effects” and the “CB2 cannabinoid receptor activity” value [3] is given as “CB2 cannabinoid receptor agonist”.
For `CC12CCC(CC1)C(C)(C)O2` [Eucalyptol, 1,8-cineol], the “in vitro anti-leukaemia activity” value [4] is listed as “in vitro anti-leukaemia properties”.
For `C=C(C)[C@H]1CC=C(C)CC1` [Limonene], the “effects suggested by studies on laboratory animals” value ([2]; limonene, rise of serotonin and dopamine in the brain) is given as “anxiolytic effects” and the “apoptosis (cell death)” value [5] is given as “produces apoptosis”.
In the case of `C=CC(C)(O)CCC=C(C)C` (stereo not drawn) [Linalool], the “effects in laboratory animals” value ([2]; linalool, mediated by adenosine A2A and glutamate receptors) is listed as “analgesic effects”.
In the case of `C=CC(=C)CCC=C(C)C` [Myrcene], the “properties shown in studies on laboratory animals” value ([2]; myrcene, laboratory animals) is listed as “sedative, hypnotic, analgesic and muscle relaxant properties”.
In the case of `O=c1cc(-c2ccc(O)cc2)oc2cc(O)cc(O)c12` [apigenin], the “action on the GABA receptors” value [6] is listed as “anxiolytic and sedative”.
In the case of `COc1cc(-c2cc(=O)c3c(O)c(C/C=C(\C)CCC=C(C)C)c(O)cc3o2)ccc1O` [cannaflavin-A], the “effect on PGE-2” value [7] is given as “inhibits” and the “anti-inflammatory power compared with aspirin” value ([7]; relative to aspirin) is given as “exponentially more powerful than aspirin”.
For `O=c1c(O)c(-c2ccc(O)c(O)c2)oc2cc(O)cc(O)c12` [quercitin, quercetin], the “effect on monoamine oxidase enzyme (MAO)” value [8] is given as “inhibits”.
